In paper PMC8634746 (International Journal of Peptide Research and Therapeutics, 2021):
Peptide text beside a SMILES is read from it.

Target: S1-ACE2 complex (Severe acute respiratory syndrome coronavirus 2, UniProt P0DTC2)
Assay type: binding, human (ACE2); SARS-CoV-2 (S1)
Settings: 5 μM peptide; preincubation 3 to 60 min

## CC(C)C[C@H](NC(=O)[C@H](CC(=O)O)NC(=O)[C@H](CCC(=O)O)NC(=O)[C@H](C)NC(=O)[C@H](CCC(=O)O)NC(=O)[C@H](Cc1c[nH]cn1)NC(=O)[C@H](CC(N)=O)NC(=O)[C@H](Cc1ccccc1)NC(=O)[C@H](CCCCN)NC(=O)[C@H](CC(=O)O)NC(=O)[C@H](CC(C)C)NC(=O)[C@H](Cc1ccccc1)NC(=O)[C@@H](NC(=O)[C@H](CCCCN)NC(=O)[C@H](C)NC(=O)[C@@H](N)CCC(N)=O)[C@@H](C)O)C(=O)N[C@@H](Cc1ccccc1)C(=O)N[C@@H](Cc1ccc(O)cc1)C(=O)N[C@@H](CCC(N)=O)C(N)=O (H-QAKTFLDKFNHEAEDLFYQ-NH2)
  half-life of preincubation-time effect on koff^rel: 14 min
